The target in assay [1] is Cyclin-dependent kinase 2/cyclin A (Homo sapiens) (UniProt P24941+P20248+P78396). The assay can be described thus: Inhibition of CDK2/cyclin A at 10 uM by IMAP assay. In kind it is protein-complex assay.
The nature of assay [2]: Antiproliferative activity against human IMR90 cells after 72 hrs by MTT assay. Type of assay: cell-based. Particulars: IMR-90, 72 h.
The subject of the next assay is Huh-7. As to the kind of experiment: Antiproliferative activity against human HuH7 cells after 72 hrs by MTT assay. In kind it is functional, cell-based. Particulars: Huh-7, 72 h.
In another assay the test system is HL-60. As to the kind of experiment: Antiproliferative activity against human HL60 cells after 5 days by MTT assay. The following applies: HL-60, 120 h. Type of assay: functional, cell-based.
The next assay concerns HCT-116. The assay can be described thus: cells. Particulars: Homo sapiens, HCT-116, 72 h.
For another assay, the system named is K562. As to the kind of experiment: cells. Particulars: Homo sapiens, K562, 72 h.
In assay [3] the target is Fibroblast growth factor receptor 3 (Homo sapiens) (UniProt P22607). As to the kind of experiment: Inhibition of FGFR3 at 10 uM.
Assay [4] addresses Proto-oncogene tyrosine-protein kinase Src (Homo sapiens) (UniProt P12931). As to the kind of experiment: Inhibition of SRC at 10 uM.
Assay [5] concerns the target Cyclin-dependent kinase 2 (Homo sapiens) (UniProt P24941). As to the kind of experiment: Inhibition of CDK2 at 10 uM.
Assay [6] deals with Angiopoietin-1 receptor (Homo sapiens) (UniProt Q02763). The assay can be described thus: Inhibition of TIE2 at 10 uM.
In assay [7] the target is Serine/threonine-protein kinase PLK4 (Homo sapiens) (UniProt O00444). The assay can be described thus: Inhibition of PLK4 at 10 uM.
For assay [8], the target named is Non-receptor tyrosine-protein kinase TYK2 (Homo sapiens) (UniProt P29597). The assay can be described thus: Inhibition of TYK2 at 10 uM.
In assay [9] the target is Serine/threonine-protein kinase B-raf (Homo sapiens) (UniProt P15056). As to the kind of experiment: Inhibition of BRAF at 10 uM.
Assay [10] has as its target Serine/threonine-protein kinase pim-3 (Homo sapiens) (UniProt Q86V86). As to the kind of experiment: Inhibition of PIM3 at 10 uM.
For assay [11], the target named is Tyrosine-protein kinase ABL1 (Homo sapiens) (UniProt P00519). As to the kind of experiment: Inhibition of ABL1 at 10 uM.
Assay [12] deals with Insulin receptor (Homo sapiens) (UniProt P06213). The assay can be described thus: Inhibition of INSR at 10 uM.
Sequence of Insulin receptor (Homo sapiens) (P06213 28-758 limits assumed): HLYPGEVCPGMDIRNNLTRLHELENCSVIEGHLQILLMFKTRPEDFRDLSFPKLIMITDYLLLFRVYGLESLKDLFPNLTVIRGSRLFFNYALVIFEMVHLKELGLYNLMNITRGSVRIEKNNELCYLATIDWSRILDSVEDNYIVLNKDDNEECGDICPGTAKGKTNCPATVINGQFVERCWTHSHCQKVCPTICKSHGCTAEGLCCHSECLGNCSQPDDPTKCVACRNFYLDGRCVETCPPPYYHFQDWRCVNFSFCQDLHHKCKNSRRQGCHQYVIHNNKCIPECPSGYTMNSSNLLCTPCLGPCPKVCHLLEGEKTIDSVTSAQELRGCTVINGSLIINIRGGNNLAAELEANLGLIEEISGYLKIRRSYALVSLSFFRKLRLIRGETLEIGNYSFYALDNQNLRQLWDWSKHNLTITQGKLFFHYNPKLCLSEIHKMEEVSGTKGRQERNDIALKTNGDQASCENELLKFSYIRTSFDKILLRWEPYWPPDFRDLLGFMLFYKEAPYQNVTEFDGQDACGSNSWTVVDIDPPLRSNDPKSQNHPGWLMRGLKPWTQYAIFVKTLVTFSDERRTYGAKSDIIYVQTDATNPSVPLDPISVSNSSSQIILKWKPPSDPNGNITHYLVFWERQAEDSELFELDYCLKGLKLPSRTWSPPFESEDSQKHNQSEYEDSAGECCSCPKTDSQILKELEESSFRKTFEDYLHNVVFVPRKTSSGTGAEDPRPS
Sequence of Insulin receptor (Homo sapiens) (P06213 763-1382 limits assumed): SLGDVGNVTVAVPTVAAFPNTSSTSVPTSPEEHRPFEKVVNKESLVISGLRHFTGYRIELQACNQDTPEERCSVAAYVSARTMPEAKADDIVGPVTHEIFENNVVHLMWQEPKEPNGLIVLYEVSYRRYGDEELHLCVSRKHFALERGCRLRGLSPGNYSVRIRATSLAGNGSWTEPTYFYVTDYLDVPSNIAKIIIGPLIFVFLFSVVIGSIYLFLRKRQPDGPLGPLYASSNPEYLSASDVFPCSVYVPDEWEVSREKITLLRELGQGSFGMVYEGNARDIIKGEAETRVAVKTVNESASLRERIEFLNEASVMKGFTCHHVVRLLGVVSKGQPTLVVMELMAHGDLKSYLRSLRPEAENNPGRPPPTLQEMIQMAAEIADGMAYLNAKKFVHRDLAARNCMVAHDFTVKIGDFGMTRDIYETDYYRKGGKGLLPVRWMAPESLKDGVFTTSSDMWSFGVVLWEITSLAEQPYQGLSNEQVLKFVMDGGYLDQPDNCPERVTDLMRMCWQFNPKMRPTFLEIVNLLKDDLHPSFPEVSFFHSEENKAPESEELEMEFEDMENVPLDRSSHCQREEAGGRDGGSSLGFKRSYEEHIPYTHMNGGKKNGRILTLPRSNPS
Assay [13] concerns the target Serine/threonine-protein kinase pim-2 (Homo sapiens) (UniProt Q9P1W9). As to the kind of experiment: Inhibition of PIM2 at 10 uM.
Assay [14] has as its target Tyrosine-protein kinase JAK2 (Homo sapiens) (UniProt O60674). The assay can be described thus: Inhibition of JAK2 at 10 uM.
In assay [15] the target is Mitogen-activated protein kinase 11 (Homo sapiens) (UniProt Q15759). As to the kind of experiment: Inhibition of p38beta at 10 uM.
The target in assay [16] is Mitogen-activated protein kinase 14 (Homo sapiens) (UniProt Q16539). The assay can be described thus: Inhibition of p38alpha at 10 uM.
The target of assay [17] is Platelet-derived growth factor receptor alpha (Homo sapiens) (UniProt P16234). As to the kind of experiment: Inhibition of PDGFRA at 10 uM.
For assay [18], the target named is Cyclin-dependent kinase 9 (Homo sapiens) (UniProt P50750). The assay can be described thus: Inhibition of CDK9 at 10 uM.
Assay [19] has as its target Serine/threonine-protein kinase Chk1 (Homo sapiens) (UniProt O14757). The assay can be described thus: Inhibition of CHEK1 at 10 uM.
In assay [20] the target is Mast/stem cell growth factor receptor Kit (Homo sapiens) (UniProt P10721). As to the kind of experiment: Inhibition of KIT at 10 uM.
Assay [21] concerns the target Phosphatidylinositol 4,5-bisphosphate 3-kinase catalytic subunit gamma isoform (Homo sapiens) (UniProt P48736). As to the kind of experiment: Inhibition of PIK3CG at 10 uM.
In assay [22] the target is Casein kinase I isoform gamma-2 (Homo sapiens) (UniProt P78368). The assay can be described thus: Inhibition of CSNK1G2 at 10 uM.
Sequence of Casein kinase I isoform gamma-2 (Homo sapiens) (P78368 whole entry, looked up, canonical isoform): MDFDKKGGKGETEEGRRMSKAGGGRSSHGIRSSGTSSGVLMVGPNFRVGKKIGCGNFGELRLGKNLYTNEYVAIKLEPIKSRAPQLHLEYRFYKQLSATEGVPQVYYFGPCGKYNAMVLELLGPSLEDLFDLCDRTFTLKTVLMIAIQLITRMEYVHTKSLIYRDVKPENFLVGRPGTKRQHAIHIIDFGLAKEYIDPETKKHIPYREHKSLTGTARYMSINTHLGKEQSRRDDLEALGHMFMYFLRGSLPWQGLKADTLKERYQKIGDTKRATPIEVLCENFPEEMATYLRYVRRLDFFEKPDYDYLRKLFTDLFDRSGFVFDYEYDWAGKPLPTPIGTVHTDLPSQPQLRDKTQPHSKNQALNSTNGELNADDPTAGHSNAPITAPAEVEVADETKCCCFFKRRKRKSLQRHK
The target in assay [23] is Platelet-derived growth factor receptor beta (Homo sapiens) (UniProt P09619). As to the kind of experiment: Inhibition of PDGFRB at 10 uM.
The target of assay [24] is Atypical kinase COQ8A, mitochondrial (Homo sapiens) (UniProt Q8NI60). As to the kind of experiment: Inhibition of ADCK3 at 10 uM.
Assay [25] has as its target SRSF protein kinase 3 (Homo sapiens) (UniProt Q9UPE1). As to the kind of experiment: Inhibition of SRPK3 at 10 uM.
The target of assay [26] is RAF proto-oncogene serine/threonine-protein kinase (Homo sapiens) (UniProt P04049). As to the kind of experiment: Inhibition of RAF1 at 10 uM.
Assay [27] concerns the target Dual specificity mitogen-activated protein kinase kinase 1 (Homo sapiens) (UniProt Q02750). The assay can be described thus: Inhibition of MEK1 at 10 uM.
Assay [28] concerns the target cAMP-dependent protein kinase catalytic subunit alpha (Homo sapiens) (UniProt P17612). The assay can be described thus: Inhibition of PKACalpha at 10 uM.
Assay [29] addresses Epidermal growth factor receptor (Homo sapiens) (UniProt P00533). The assay can be described thus: Inhibition of EGFR at 10 uM.
For assay [30], the target named is Tyrosine-protein kinase BTK (Homo sapiens) (UniProt Q06187). As to the kind of experiment: Inhibition of BTK at 10 uM.
For assay [31], the target named is Dual specificity tyrosine-phosphorylation-regulated kinase 1B (Homo sapiens) (UniProt Q9Y463). As to the kind of experiment: Inhibition of DYRK1B at 10 uM.
Assay [32] concerns the target Receptor-type tyrosine-protein kinase FLT3 (Homo sapiens) (UniProt P36888). The assay can be described thus: Inhibition of FLT3 at 10 uM.
In assay [33] the target is Glycogen synthase kinase-3 beta (Homo sapiens) (UniProt P49841). As to the kind of experiment: Inhibition of GSK3-beta at 10 uM.
For assay [34], the target named is Fibroblast growth factor receptor 2 (Homo sapiens) (UniProt P21802). As to the kind of experiment: Inhibition of FGFR2 at 10 uM.
Assay [35] addresses Mitogen-activated protein kinase 3 (Homo sapiens) (UniProt P27361). The assay can be described thus: Inhibition of ERK1 at 10 uM.
Assay [36] has as its target Hepatocyte growth factor receptor (Homo sapiens) (UniProt P08581). The assay can be described thus: Inhibition of MET at 10 uM.
The target in assay [37] is Cyclin-dependent kinase 3 (Homo sapiens) (UniProt Q00526). As to the kind of experiment: Inhibition of CDK3 at 10 uM.
Assay [38] has as its target TGF-beta receptor type-1 (Homo sapiens) (UniProt P36897). As to the kind of experiment: Inhibition of TGFBR1 at 10 uM.
In assay [39] the target is Dual specificity mitogen-activated protein kinase kinase 2 (Homo sapiens) (UniProt P36507). As to the kind of experiment: Inhibition of MEK2 at 10 uM.
The target of assay [40] is ALK tyrosine kinase receptor (Homo sapiens) (UniProt Q9UM73). As to the kind of experiment: Inhibition of ALK at 10 uM.
The target of assay [41] is Receptor tyrosine-protein kinase erbB-4 (Homo sapiens) (UniProt Q15303). As to the kind of experiment: Inhibition of ERBB4 at 10 uM.
The target of assay [42] is Insulin-like growth factor 1 receptor (Homo sapiens) (UniProt P08069). The assay can be described thus: Inhibition of IGF1R at 10 uM.
Sequence of Insulin-like growth factor 1 receptor (Homo sapiens) (P08069 31-736 limits assumed): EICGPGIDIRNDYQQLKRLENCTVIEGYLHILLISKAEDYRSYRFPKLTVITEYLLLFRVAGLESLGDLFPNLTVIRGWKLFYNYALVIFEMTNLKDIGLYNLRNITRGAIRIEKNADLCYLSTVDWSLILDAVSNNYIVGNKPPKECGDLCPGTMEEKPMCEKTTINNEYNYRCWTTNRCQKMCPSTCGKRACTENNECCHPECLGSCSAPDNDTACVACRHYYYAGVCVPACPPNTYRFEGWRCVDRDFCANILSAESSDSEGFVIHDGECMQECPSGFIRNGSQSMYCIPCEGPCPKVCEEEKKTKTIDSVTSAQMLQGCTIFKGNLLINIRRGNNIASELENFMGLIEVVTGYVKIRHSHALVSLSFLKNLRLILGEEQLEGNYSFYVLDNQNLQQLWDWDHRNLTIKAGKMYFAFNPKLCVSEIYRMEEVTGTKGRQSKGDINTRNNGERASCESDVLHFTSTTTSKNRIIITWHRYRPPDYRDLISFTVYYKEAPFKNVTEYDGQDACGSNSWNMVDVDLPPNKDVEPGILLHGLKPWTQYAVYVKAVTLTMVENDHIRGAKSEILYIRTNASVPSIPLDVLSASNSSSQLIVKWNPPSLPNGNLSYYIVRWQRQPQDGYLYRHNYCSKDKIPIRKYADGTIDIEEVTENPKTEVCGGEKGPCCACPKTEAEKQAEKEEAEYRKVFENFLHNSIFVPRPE
Sequence of Insulin-like growth factor 1 receptor (Homo sapiens) (P08069 741-1367 limits assumed): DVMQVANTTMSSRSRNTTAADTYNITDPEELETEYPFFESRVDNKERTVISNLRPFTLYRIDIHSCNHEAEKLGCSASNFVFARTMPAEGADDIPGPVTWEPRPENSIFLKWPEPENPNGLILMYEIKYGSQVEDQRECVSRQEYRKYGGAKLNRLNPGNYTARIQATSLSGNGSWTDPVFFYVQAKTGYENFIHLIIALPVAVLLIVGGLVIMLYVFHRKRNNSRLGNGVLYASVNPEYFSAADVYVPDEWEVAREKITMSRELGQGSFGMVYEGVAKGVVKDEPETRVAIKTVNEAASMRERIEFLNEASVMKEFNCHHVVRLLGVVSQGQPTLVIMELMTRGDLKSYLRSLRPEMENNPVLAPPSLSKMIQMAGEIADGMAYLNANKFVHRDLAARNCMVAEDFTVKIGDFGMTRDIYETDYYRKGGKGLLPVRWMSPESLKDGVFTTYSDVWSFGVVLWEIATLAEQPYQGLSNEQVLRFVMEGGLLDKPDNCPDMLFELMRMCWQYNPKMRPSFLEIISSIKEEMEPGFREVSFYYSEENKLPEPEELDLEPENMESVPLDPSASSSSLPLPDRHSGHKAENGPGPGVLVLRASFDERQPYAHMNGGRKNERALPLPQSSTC
Assay [43] addresses Macrophage colony-stimulating factor 1 receptor (Homo sapiens) (UniProt P07333). The assay can be described thus: Inhibition of CSF1R at 10 uM.
Assay [44] has as its target Serine/threonine-protein kinase pim-1 (Homo sapiens) (UniProt P11309). As to the kind of experiment: Inhibition of PIM1 at 10 uM.
Assay [45] has as its target Receptor tyrosine-protein kinase erbB-2 (Homo sapiens) (UniProt P04626). As to the kind of experiment: Inhibition of ERBB2 at 10 uM.
The target of assay [46] is Cyclin-dependent kinase 7 (Homo sapiens) (UniProt P50613). As to the kind of experiment: Inhibition of CDK7 at 10 uM.

Structures are written as SMILES. pIC50: −log10 of the molar value. Active and inactive are the calls of the source. The calls are words filed in the database; no cut-off is given here.

Sequence of SRSF protein kinase 3 (Homo sapiens) (Q9UPE1 whole entry): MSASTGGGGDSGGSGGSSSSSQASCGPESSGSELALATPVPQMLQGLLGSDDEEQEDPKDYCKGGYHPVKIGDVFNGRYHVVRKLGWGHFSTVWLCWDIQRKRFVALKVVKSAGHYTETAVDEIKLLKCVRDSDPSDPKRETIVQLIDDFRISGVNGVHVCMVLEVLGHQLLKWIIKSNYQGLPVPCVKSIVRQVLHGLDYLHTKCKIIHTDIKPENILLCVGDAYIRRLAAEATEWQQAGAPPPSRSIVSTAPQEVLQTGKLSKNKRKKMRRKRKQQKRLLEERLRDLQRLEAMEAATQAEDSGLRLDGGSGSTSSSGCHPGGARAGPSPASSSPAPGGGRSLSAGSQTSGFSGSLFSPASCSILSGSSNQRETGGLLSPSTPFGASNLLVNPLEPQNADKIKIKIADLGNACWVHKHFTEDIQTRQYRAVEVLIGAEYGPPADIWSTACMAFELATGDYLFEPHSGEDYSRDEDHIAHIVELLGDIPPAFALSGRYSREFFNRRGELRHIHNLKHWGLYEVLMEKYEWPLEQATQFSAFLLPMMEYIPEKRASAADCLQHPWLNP
Sequence of Receptor tyrosine-protein kinase erbB-2 (Homo sapiens) (P04626 whole entry): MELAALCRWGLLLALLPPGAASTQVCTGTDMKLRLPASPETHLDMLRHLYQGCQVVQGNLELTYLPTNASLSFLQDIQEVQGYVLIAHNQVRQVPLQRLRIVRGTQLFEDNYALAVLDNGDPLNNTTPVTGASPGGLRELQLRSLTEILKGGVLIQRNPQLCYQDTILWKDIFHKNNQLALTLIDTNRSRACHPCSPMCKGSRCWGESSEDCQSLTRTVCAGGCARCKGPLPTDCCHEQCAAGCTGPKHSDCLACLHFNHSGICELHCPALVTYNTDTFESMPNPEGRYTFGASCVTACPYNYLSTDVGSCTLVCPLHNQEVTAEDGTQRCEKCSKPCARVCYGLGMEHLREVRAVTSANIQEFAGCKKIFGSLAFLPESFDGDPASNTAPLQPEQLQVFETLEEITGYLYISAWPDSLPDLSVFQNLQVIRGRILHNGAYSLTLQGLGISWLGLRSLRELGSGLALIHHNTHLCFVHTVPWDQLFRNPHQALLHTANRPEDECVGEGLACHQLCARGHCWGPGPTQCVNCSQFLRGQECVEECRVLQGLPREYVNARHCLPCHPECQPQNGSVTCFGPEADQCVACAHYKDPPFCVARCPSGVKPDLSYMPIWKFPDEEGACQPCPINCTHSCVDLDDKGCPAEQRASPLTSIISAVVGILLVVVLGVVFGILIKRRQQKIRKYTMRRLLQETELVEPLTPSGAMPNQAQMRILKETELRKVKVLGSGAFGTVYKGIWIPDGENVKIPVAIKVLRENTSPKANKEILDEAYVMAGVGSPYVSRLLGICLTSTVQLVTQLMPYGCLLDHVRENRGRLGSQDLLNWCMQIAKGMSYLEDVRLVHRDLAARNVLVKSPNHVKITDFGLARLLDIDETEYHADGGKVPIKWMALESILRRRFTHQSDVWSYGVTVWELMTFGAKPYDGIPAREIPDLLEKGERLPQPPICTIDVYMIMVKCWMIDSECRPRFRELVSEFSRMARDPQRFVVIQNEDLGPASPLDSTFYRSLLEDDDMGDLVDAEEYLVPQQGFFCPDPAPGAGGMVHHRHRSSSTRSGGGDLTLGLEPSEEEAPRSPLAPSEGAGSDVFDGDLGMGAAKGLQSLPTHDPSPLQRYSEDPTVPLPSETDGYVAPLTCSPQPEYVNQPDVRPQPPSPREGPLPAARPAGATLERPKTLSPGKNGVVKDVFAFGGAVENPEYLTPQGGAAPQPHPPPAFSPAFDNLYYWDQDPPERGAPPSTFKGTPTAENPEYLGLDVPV
Description for HCT-116: Antiproliferative activity against human HCT116 cells after 72 hrs by MTT assay
Description for K562: Antiproliferative activity against human K562 cells after 72 hrs by MTT assay

Consider `O=C1Nc2ccccc2C1C1C(=O)Nc2ccccc21` (configuration not stated), for which, in assay [1], the inhibition entry was “inactive”.
Consider `Cc1ccc(CCN2C(=O)/C(=C3/C(=O)Nc4ccccc43)c3ccccc32)cc1`, for which the inhibition result in [1] was “inactive”. Moreover, the pIC50 is under 4.52 in assay [2]; 4.72 in the assay on Huh-7; under 4.52 in the assay with HL-60; under 4.52 in the assay with HCT-116; under 4.52 in the assay with K562.
With `O=C1Nc2ccccc2/C1=C1\C(=O)Nc2ccccc21` [ISOINDIGO], the inhibition entry in [1] was “inactive”. Also, the negative logarithm of the IC50 (pIC50) in assay [2] is 4.79; in the assay on Huh-7, 4.54; in the assay on HL-60, 4.78; with HCT-116, under 4.52; in the assay with K562, 5.17.
With `CN1C(=O)/C(=C2/C(=O)N(C)c3ccccc32)c2ccccc21`, the inhibition entry in assay [1] was “inactive”.
`O=C1Nc2cc(Br)ccc2/C1=C1/Nc2ccccc2/C1=N\O` had an inhibition in assay [1] of 70%.
Turning to `COc1ccc(CCN2C(=O)/C(=C3/C(=O)Nc4ccccc43)c3ccccc32)cc1`, the inhibition entry in assay [1] was “inactive”. Besides, the pIC50 in assay [2] is 5.27; in the assay on Huh-7, 5.12; in the assay on HL-60, 4.92; with HCT-116 it was 4.94; in the assay on K562, 5.85.
For the compound `O=Nc1c(-c2c(O)[nH]c3ccccc23)[nH]c2ccccc12` [INDIRUBIN-3-MONOXIME], in assay [1], the inhibition worked out at 70%. For the same compound, the negative-log IC50 (pIC50) is 4.74 in assay [2], 4.80 with HL-60, 4.92 in the assay with HCT-116 and under 4.52 in the assay on K562.
As for `O=C1Nc2ccccc2/C1=C1\C(=O)N(Cc2ccccc2)c2ccccc21`, in assay [1], the inhibition result is “inactive”.
For the compound `O=C1Nc2ccccc2/C1=C1\C(=O)N(CCCc2ccccc2)c2ccccc21`, the inhibition result in assay [1] is “inactive”. In addition, the inhibition was found to be 32% in assay [3]; 15% in [4]; 0% in assay [5]; 0% in [6]; 39% in [7]; 0% in assay [8]. Moreover, the inhibition is 0% in assay [9]; 0% in assay [10]; 46% in assay [11]; 0% in [12]; 23% in assay [13]; 25% in assay [14]. For the same compound, the inhibition was found to be 32% in [15]; 4% in assay [16]; 0% in assay [17]; 0% in assay [18]; 35% in assay [19]; 49% in [20]. Besides, the inhibition in assay [21] amounted to 19%; in assay [22], 0%; in assay [23], 49%; in assay [24], 45%; in [25], 7%; in assay [26], 9%. In addition, the inhibition in [27] is 0%; in assay [28], 12%; in assay [29] it was 0%; in assay [30], 13%; in assay [31], 0%; in assay [32], 0%. Moreover, the inhibition in [33] was found to be 5%; in assay [34], 42%; in [35], 18%; in assay [36], 0%; in assay [37], 0%; in assay [38], 0%. The inhibition in [39] is 9%; in [40] it was 0%; in assay [41] it was 16%; in [42] it was 20%; in assay [43], 11%; in assay [44], 0%. Besides, the results for the inhibition in assay [45] and in [46] were 3% and 28%, respectively.
Turning to `O=C1Nc2ccccc2/C1=C1\C(=O)N(CCc2ccccc2)c2ccccc21`, in assay [1], the inhibition entry was “inactive”. Also, the pIC50 is 5.17 in [2]; 4.92 in the assay with Huh-7; 4.92 in the assay on HL-60; 4.91 with HCT-116; 5.14 in the assay on K562.
As for `O=C1Nc2ccccc2/C1=C1\C(=O)N(CCc2ccc([N+](=O)[O-])cc2)c2ccccc21`, in assay [1], the inhibition result is “inactive”. For the same compound, the negative-log IC50 (pIC50) was 5.12 in assay [2]; 4.88 in the assay on Huh-7; under 4.52 in the assay with HL-60; under 4.52 in the assay on HCT-116; under 4.52 in the assay with K562.
As for `O=C1Nc2ccccc2/C1=C1\C(=O)N(c2ccccc2)c2ccccc21`, the inhibition entry in assay [1] is “inactive”.
As for `O=C1Nc2ccccc2/C1=C1\C(=O)N(CCc2ccc(O)cc2)c2ccccc21`, in assay [1], the inhibition entry is “inactive”. Further, the pIC50 in assay [2] is under 4.52; in the assay on Huh-7, 4.70; in the assay on HL-60, under 4.52; in the assay on HCT-116 it was under 4.52; in the assay with K562, under 4.52.
For the compound `CC(=O)Nc1ccc(CCN2C(=O)/C(=C3/C(=O)Nc4ccccc43)c3ccccc32)cc1`, in [1], the inhibition entry is “inactive”. For the same compound, the negative logarithm of the IC50 (pIC50) is 4.71 in assay [2]; 4.88 in the assay on Huh-7; under 4.52 in the assay on HL-60; under 4.52 in the assay on HCT-116; under 4.52 in the assay with K562.
